The text below walks through data of patent US20240335431A1, “1-H-PYRROLO[2,3-c]PYRIDINE COMPOUNDS” (Acerta Pharma B.V., priority 2023, published 2024).

The test has as its system MOLM-13 AML cells. As to the kind of experiment: MLLr AML xenograft model MOLM-13. As to conditions: for tumor response (in words): 30 mg/kg. It is filed as in vivo, female CB17 SCID mice. As for the experimental part: MOLM-13 cells were grown in RPM1 1640 (Gibco, #21875091) supplemented with 10% FBS (Gibco; #10091-148) and 1% Pen/Strep (Gibco; #15140-122). Cells were harvested and resuspended in PBS/Matrigel (Corning; #CLS354234) (50/50). Compound 56-2 was formulated in water at pH 4.5-5 using 1 M MSA as pH-adjusting agent at the concentrations up to 100 mg/mL to achieve a uniform suspension and dosed twice daily by oral gavage 10 mL/kg.
1 million human MOLM-13 AML cells were implanted subcutaneously in the right flank of female CB17 SCID mice. Mice were randomized into groups of 5 when average tumor volume reached approximately 160 mm^3. Mice were treated for 21 days with vehicle (water at pH 4.5-5 using 1 M MSA) or Compound 56-2 at 30, 100, or 200 mg/kg. Test compound was dosed orally twice daily 8/16 hours apart. The group administered Compound 56-2 at 30, 100, 200 mg/kg were monitored for regrowth for 3 weeks. […] FIG. 2A illustrates the effect of treatment with Compound 56-2 on tumor volume in this MLLr MOLM-13 human AML cancer xenograft mouse model.
In a second cohort of mice, MOLM-13 AML cells were implanted and randomized as described above. Mice were treated until tumor outgrowth with vehicle (water at pH 4.5-5 using 1 M MSA) or Compound 56-2 at 30 mg/kg or 150 mg/kg. Test compound was dosed orally twice daily 8/16 hours apart. […] FIG. 2B illustrates the effect of treatment with Compound 56-2 on tumor volume in this MLLr MOLM-13 human AML cancer xenograft mouse model.

Where [1] appears, read: second cohort, 30 mg/kg oral twice daily, 41 days or less.

Turning to `Cc1c(C(=O)C2CCN(C(=O)[C@@H]3CCC(C)(C)N3)CC2)c2ccncc2n1-c1ccc(F)cc1C(=O)N(C(C)C)C(C)C` (single isomer, unassigned) [Compound 56-2], the “% REGRESSION AT END OF TREATMENT” value (30 mg/kg oral twice daily, 21 days) came out at 6.2%; the “% REGRESSION AT END OF TREATMENT” value (100 mg/kg oral twice daily, 21 days) was 89.8%; the “% REGRESSION AT END OF TREATMENT” value (200 mg/kg oral twice daily, 21 days) is recorded as 98.5%; the “% REGRESSION AT END OF TREATMENT” value under setting [1] was determined as 0%; the “% REGRESSION AT END OF TREATMENT” value (second cohort, 150 mg/kg oral twice daily, 90 days) is reported as 100%. Moreover, the “% TUMOR REGROWTH AT STUDY END” value amounted to 100% (30 mg/kg oral twice daily, 21 days, monitored 3 weeks); 80% (100 mg/kg oral twice daily, 21 days, monitored 3 weeks); 100% (200 mg/kg oral twice daily, 21 days, monitored 3 weeks); 0% under setting [1]; 100% (second cohort, 150 mg/kg, 90 days, monitored additional 70 days). Further, the “tumor response (in words)” value is “outgrew after treatment end” (21 days) and “all animals outgrew treatment” (second cohort, 41 days or less). Moreover, the “tumor response at end of treatment (in words)” value (100 mg/kg and 200 mg/kg, 21 days) was “complete tumor regressions”; the “tumor response at end of treatment (in words)” value (second cohort, 150 mg/kg, 90 days) is “complete tumor regression”.
